Laboratory results from patent US20220152031A1, “PYRIDAZINONES AND METHODS OF USE THEREOF” (Goldfinch Bio, Inc., priority 2019, published 2022).

target: T1, TRPC5 (Homo sapiens, UniProt Q9UL62); assay: TRPC5 activity assay (FLIPR calcium fluorescence, HEK-TREx hTRPC5 cells); format: cell-based; conditions: HEK-TREx hTRPC5 cells, FLIPR, 30 μM Riluzole stimulation; read-out: TRPC5
T1 construct: expressed in transfected cells
T1 sequence (Q9UL62 1-973): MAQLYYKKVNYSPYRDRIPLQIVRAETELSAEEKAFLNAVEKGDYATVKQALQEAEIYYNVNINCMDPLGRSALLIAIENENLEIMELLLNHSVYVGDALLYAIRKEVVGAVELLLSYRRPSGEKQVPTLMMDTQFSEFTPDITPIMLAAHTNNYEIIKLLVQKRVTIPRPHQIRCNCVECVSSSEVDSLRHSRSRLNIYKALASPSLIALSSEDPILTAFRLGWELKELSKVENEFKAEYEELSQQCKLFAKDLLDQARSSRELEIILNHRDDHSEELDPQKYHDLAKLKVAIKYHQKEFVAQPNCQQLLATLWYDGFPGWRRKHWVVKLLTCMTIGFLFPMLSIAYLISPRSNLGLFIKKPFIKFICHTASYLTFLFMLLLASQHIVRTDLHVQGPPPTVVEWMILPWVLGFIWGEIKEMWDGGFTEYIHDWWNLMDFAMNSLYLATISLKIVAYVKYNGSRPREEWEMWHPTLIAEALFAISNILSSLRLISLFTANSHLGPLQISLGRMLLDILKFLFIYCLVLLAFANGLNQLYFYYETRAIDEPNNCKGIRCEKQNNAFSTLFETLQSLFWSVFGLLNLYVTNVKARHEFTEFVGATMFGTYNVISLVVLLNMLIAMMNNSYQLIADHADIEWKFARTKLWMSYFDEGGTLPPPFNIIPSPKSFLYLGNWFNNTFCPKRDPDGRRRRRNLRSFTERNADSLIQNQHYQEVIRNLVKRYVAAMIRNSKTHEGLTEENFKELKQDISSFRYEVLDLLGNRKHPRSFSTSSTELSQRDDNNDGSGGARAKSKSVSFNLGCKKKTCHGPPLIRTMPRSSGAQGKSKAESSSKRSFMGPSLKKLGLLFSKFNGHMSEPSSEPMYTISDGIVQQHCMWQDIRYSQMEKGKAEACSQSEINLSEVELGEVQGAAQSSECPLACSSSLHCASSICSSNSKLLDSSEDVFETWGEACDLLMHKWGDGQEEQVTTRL
Procedure: ICLN-1633 cells (HEK-TREx hTRPC5) expressing TRPC5 were generated as follows. Commercially available HekTrex-293 cells were seeded at 0.7×10^6 cells/well in a 1×6-well plate 24 hrs prior to transfection using 2 mL cell growth media containing no antibiotics (lx DMEM/high glucose (Hyclone #SH30022.02); 10% fetal bovine serum (Sigma) 2 mM sodium pyruvate, 10 mM HEPES). […] On day 2, 2 μg of plasmid DNA plus 6 μl of Xtreme-GENE HP reagent in Optimem (200 μl total volume) was prepared and incubated for 15 min at room temperature. This plasmid solution was then gently overlayed dropwise onto each well and the plate was gently swirled to mix complex with the media for approximately 30 seconds. Transfected cells were incubated at 37° C. in a 10% CO2 incubator for 24 hrs. The transfected cells were harvested and transferred into 2×150 mm dishes containing cell growth media with no antibiotics at 37° C.
The next day selection was initiated to generate a stable pool by adding cell growth media containing 150 μg/mL Hygromycin and 5 μg/mL Blasticidin and cells were allowed to grow. Media with the selection agent was changed every 1-2 days as needed to remove dead cells. After 7 days, the hygromycin concentration was reduced to 75 μg/mL and cells growth was allowed to continue.
Single clones were selected as follows. The stable pool was diluted to 10 cells/mL and seeded (100 μl/well) into 24×96 well plates (˜1 cell/well) and allowed to grow for 7 days in cell growth media. Fresh media (100 μl) was added and the cells allowed to grow for another 1-2 weeks and then stored frozen or used immediately.
10-point dose response curves were generated using the Echo-550 acoustic dispenser. Compound source plates were made by serially diluting compound stocks to create 10 mM, 1 mM, and 0.1 mM solutions in DMSO into Echo certified LDV plates. The Echo then serially spotted 100% DMSO stock solutions into source dose response plates to generate a 4-fold dilution scheme. 100% DMSO was added to the spotted dose response plates to bring the final volume to 5 μl. 300 nl of the dose response stock plate was then spotted into pre-incubation and stimulation assay plates. 50 μl of pre-incubation buffer and 100 μl of stimulation buffer was then added to the plates resulting in a final assay test concentration range of 30 μM to 0.0001 μM with a final DMSO concentration of 0.3%.
Human ICLN-1633 cells expressing were plated onto 384 well, black PDL-coated microplates and maintained in TRPC5 growth media the day prior to use for experiments. TRPC5 expression was induced by the application of 1 μg/mL tetracycline at the time of plating. […] Cells are incubated at room temperature, protected from light, for 60-90 minutes. After the incubation period, the dye is removed and replaced with 10 μl of EBSS. Cell, pre-incubation and stimulation plates are loaded onto the FLIPR-II and the assay is initiated. The FLIPR measures a 10 second baseline and then adds 10 μl of 2× compounds (or controls). Changes in fluorescence are monitored for an additional 5 minutes. After the 5 minute pre-incubation, 20 μl of 2× Riluzole (with 1× compound or controls) is added to the cell plate. The final Riluzole stimulation concentration in the assay is 30 μM. After the Riluzole addition, changes in fluorescence are monitored for an additional 5 minutes.
Compound modulation of TRPC5 calcium response was determined as follows. After the Englerin A, fluorescence was monitored for a 5-minute period. The maximum relative fluorescence response (minus the control response of 1 μM of an internal control compound known to maximally block TRPC5 calcium response, the “REF INHIB” in the formula below) was captured and exported from the FLIPR.
Compound effect is calculated as % inhibition using the following formula: […]
wherein “RFU” is the relative fluorescent units.

SMILES	IC50 [nM]
C[C@@H](O)c1nc2c(c(Oc3ccccc3C(F)(F)F)n1)CCN(c1cn[nH]c(=O)c1Cl)C2 (single isomer, unassigned) [Compound 122]	< 50
C[C@H](O)c1nc2c(c(Oc3ccccc3C(F)(F)F)n1)CCN(c1cn[nH]c(=O)c1Cl)C2 (single isomer, unassigned) [Compound 123]	50 to 500
O=c1[nH]ncc(N2CCc3c(ncnc3Oc3cnccc3C(F)(F)F)C2)c1Cl [Compound 107]	< 50
CCc1c(F)cccc1Oc1ncnc2c1CCN(c1cn[nH]c(=O)c1Cl)C2 [Compound 109, 4-Chloro-5-[4-(2-ethyl-3-fluorophenoxy)-5H,6H,7H,8H-pyrido[3,4-d]pyrimidin-7-yl]-2,3-dihydropyridazin-3-one]	< 50
COc1nc2c(c(Oc3ccccc3C(F)(F)F)n1)CCN(c1cn[nH]c(=O)c1Cl)C2 [Compound 110, 4-Chloro-5-[2-methoxy-4-[2-(trifluoromethyl)phenoxy]-5H,6H,7H,8H-pyrido[3,4-d]pyrimidin-7-yl]-2,3-dihydropyridazin-3-one]	50 to 500
Nc1nc2c(c(Oc3ccc(F)cc3Cl)n1)CCN(c1cn[nH]c(=O)c1Cl)C2 [Compound 112, 5-[2-amino-4-(2-chloro-4-fluorophenoxy)-5H,6H,7H,8H-pyrido[3,4-d]pyrimidin-7-yl]-4-chloro-2,3-dihydropyridazin-3-one]	< 50
O=c1[nH]ncc(N2CCc3c(nc(CO)nc3Oc3ccc(F)cc3Cl)C2)c1Cl [Compound 114]	< 50
C[C@@H]1c2ncnc(Oc3ccc(F)cc3Cl)c2CCN1c1cn[nH]c(=O)c1Cl [Compound 118, 4-chloro-5-[(8R)-4-(2-chloro-4-fluorophenoxy)-8-methyl-5H,6H,7H,8H-pyrido[3,4-d]pyrimidin-7-yl]-2,3-dihydropyridazin-3-one]	50 to 500
C[C@@H](O)c1nc2c(c(Oc3ccc(F)cc3Cl)n1)CCN(c1cn[nH]c(=O)c1Cl)C2 [Compound 119]	< 50
O=c1[nH]ncc(N2CCc3c(ccnc3Oc3ccc(F)cc3C(F)(F)F)C2)c1Cl [Compound 120, 4-chloro-5-[5-[4-fluoro-2-(trifluoromethyl)phenoxy]-1,2,3,4-tetrahydro-2,6-naphthyridin-2-yl]-2,3-dihydropyridazin-3-one]	< 50
O=c1[nH]ncc(N2CCc3c(ncnc3Oc3c(F)cccc3C(F)(F)F)C2)c1Cl [Compound 121]	< 50
O=c1[nH]ncc(N2CCc3c(nc(CO)nc3Oc3ccc(F)cc3C(F)(F)F)C2)c1Cl [Compound 125]	< 50
O=c1[nH]ncc(N2CCc3c(nc(CO)nc3Oc3ccccc3C(F)(F)F)C2)c1Cl [Compound 128]	< 50
C[C@@H]1CCN(Cc2ccccc2)C[C@@H]1N(C)c1ncnc2c1CCN(c1cn[nH]c(=O)c1Cl)C2 [Compound 133, 5-(4-[[(3R,4R)-1-Benzyl-4-methylpiperidin-3-yl](methyl)amino]-5H,6H,7H,8H-pyrido[3,4-d]pyrimidin-7-yl)-4-chloro-2,3-dihydropyridazin-3-one]	50 to 500
C[C@H]1CCN(Cc2ccccc2)C[C@H]1N(C)c1ncnc2c1CCN(c1cn[nH]c(=O)c1Cl)C2 [Compound 133a]	500 to 1000

Now from value to molecule:

IC50 [nM]	SMILES
< 50	O=c1[nH]ncc(N2CCc3c(ncnc3Oc3ccccc3Cl)C2)c1Cl [Compound 101]
< 50	Nc1nc2c(c(Oc3ccccc3C(F)(F)F)n1)CCN(c1cn[nH]c(=O)c1Cl)C2 [Compound 102]
< 50	O=c1[nH]ncc(N2CCc3c(ncnc3Oc3ccccc3C(F)F)C2)c1Cl [Compound 103, 4-Chloro-5-[4-[2-(difluoromethyl)phenoxy]-5H,6H,7H,8H-pyrido[3,4-d]pyrimidin-7-yl]-2,3-dihydropyridazin-3-one]
< 50	O=c1[nH]ncc(N2CCc3c(ncnc3Oc3ccc(F)cc3C(F)F)C2)c1Cl [Compound 105]
< 50	O=c1[nH]ncc(N2CCc3c(ncnc3Oc3cc(F)ccc3C(F)(F)F)C2)c1Cl [Compound 106]
50 to 500	N#Cc1cccc(Oc2ncnc3c2CCN(c2cn[nH]c(=O)c2Cl)C3)c1Cl [Compound 108, 2-Chloro-3-[[7-(5-chloro-6-oxo-1,6-dihydropyridazin-4-yl)-5H,6H,7H,8H-pyrido[3,4-d]pyrimidin-4-yl]oxy]benzonitrile]
50 to 500	N#Cc1cccc(Oc2ncnc3c2CCN(c2cn[nH]c(=O)c2Cl)C3)c1C(F)(F)F [Compound 111, 3-[[7-(5-Chloro-6-oxo-1,6-dihydropyridazin-4-yl)-5H,6H,7H,8H-pyrido[3,4-d]pyrimidin-4-yl]oxy]-2-(trifluoromethyl)benzonitrile]
< 50	Nc1nc2c(c(Oc3ccccc3Cl)n1)CCN(c1cn[nH]c(=O)c1Cl)C2 [Compound 113]
50 to 500	O=c1[nH]ncc(N2CCc3c(nc(NCCO)nc3Oc3ccccc3C(F)(F)F)C2)c1Cl [Compound 115, 4-chloro-5-[2-[(2-hydroxyethyl)amino]-4-[2-(trifluoromethyl)phenoxy]-5H,6H,7H,8H-pyrido[3,4-d]pyrimidin-7-yl]-2,3-dihydropyridazin-3-one]
< 50	Nc1nc2c(c(Oc3ccc(F)cc3C(F)(F)F)n1)CCN(c1cn[nH]c(=O)c1Cl)C2 [Compound 116]
< 50	Cc1cc(F)ccc1Oc1ncnc2c1CCN(c1cn[nH]c(=O)c1Cl)C2 [Compound 124]
50 to 500	CN(c1ccc(F)cc1C(F)(F)F)c1cc(=O)n(C)c2c1CCN(c1cn[nH]c(=O)c1Cl)C2 [Compound 127, 7-(5-Chloro-6-oxo-1,6-dihydropyridazin-4-yl)-4-[[4-fluoro-2-(trifluoromethyl)phenyl](methyl)amino]-1-methyl-1,2,5,6,7,8-hexahydro-1,7-naphthyridin-2-one]
< 50	CN(c1cnccc1C(F)(F)F)c1ncnc2c1CCN(c1cn[nH]c(=O)c1Cl)C2 [Compound 131, 4-chloro-5-(4-[methyl[4-(trifluoromethyl)pyridin-3-yl]amino]-5H,6H,7H,8H-pyrido[3,4-d]pyrimidin-7-yl)-2,3-dihydropyridazin-3-one]
50 to 500	O=c1[nH]ncc(N2CCc3c(ncnc3C3(c4ccc(F)cc4C(F)(F)F)CC3)C2)c1Cl [Compound 132, 4-Chloro-5-(4-[1-[4-fluoro-2-(trifluoromethyl)phenyl]cyclopropyl]-5H,6H,7H,8H-pyrido[3,4-d]pyrimidin-7-yl)-2,3-dihydropyridazin-3-one]
